These are literature values, as cited in US8109064B2, “Methods and systems for contact lens sterilization” (Menicon Signapore Pte Ltd., priority 2006, dated 2012).

For the series the following is noted: in vivo.

As for polyhexamine biguanide [PHMB], the corneal staining result was “implicated in corneal staining”.
